Assay results reported in patent US6887712B1, “Methods and compositions to lower plasma cholesterol levels” (AtheroGenics, Inc., priority 1998, dated 2005).

Assays:
plasma cholesterol = experiment: Plasma cholesterol lowering in hamsters; design: species or system hamster; conditions: ability to lower plasma cholesterol in vivo in hamsters, yes/no
Procedure: The monosuccinic acid ester of probucol and several other compounds were tested in vitro in the immunoreactivity cell-free assay described above in Example 3 and in vivo in hamsters for their ability to lower plasma cholesterol.

[1] = molecular target: T1, specific epitope on apoB-100 of LDL (Homo sapiens, UniProt P04114); experiment: Immunoreactivity cell-free sandwich ELISA: binding of LDL to capture anti-apoB monoclonal antibody; conditions: for Cell-Free Assay: immunoreactivity cell-free assay of Example 3, yes/no
T1 construct: from tissue; host or cells: LDL particles (plasma lipoprotein)
T1 sequence (P04114 28-4563): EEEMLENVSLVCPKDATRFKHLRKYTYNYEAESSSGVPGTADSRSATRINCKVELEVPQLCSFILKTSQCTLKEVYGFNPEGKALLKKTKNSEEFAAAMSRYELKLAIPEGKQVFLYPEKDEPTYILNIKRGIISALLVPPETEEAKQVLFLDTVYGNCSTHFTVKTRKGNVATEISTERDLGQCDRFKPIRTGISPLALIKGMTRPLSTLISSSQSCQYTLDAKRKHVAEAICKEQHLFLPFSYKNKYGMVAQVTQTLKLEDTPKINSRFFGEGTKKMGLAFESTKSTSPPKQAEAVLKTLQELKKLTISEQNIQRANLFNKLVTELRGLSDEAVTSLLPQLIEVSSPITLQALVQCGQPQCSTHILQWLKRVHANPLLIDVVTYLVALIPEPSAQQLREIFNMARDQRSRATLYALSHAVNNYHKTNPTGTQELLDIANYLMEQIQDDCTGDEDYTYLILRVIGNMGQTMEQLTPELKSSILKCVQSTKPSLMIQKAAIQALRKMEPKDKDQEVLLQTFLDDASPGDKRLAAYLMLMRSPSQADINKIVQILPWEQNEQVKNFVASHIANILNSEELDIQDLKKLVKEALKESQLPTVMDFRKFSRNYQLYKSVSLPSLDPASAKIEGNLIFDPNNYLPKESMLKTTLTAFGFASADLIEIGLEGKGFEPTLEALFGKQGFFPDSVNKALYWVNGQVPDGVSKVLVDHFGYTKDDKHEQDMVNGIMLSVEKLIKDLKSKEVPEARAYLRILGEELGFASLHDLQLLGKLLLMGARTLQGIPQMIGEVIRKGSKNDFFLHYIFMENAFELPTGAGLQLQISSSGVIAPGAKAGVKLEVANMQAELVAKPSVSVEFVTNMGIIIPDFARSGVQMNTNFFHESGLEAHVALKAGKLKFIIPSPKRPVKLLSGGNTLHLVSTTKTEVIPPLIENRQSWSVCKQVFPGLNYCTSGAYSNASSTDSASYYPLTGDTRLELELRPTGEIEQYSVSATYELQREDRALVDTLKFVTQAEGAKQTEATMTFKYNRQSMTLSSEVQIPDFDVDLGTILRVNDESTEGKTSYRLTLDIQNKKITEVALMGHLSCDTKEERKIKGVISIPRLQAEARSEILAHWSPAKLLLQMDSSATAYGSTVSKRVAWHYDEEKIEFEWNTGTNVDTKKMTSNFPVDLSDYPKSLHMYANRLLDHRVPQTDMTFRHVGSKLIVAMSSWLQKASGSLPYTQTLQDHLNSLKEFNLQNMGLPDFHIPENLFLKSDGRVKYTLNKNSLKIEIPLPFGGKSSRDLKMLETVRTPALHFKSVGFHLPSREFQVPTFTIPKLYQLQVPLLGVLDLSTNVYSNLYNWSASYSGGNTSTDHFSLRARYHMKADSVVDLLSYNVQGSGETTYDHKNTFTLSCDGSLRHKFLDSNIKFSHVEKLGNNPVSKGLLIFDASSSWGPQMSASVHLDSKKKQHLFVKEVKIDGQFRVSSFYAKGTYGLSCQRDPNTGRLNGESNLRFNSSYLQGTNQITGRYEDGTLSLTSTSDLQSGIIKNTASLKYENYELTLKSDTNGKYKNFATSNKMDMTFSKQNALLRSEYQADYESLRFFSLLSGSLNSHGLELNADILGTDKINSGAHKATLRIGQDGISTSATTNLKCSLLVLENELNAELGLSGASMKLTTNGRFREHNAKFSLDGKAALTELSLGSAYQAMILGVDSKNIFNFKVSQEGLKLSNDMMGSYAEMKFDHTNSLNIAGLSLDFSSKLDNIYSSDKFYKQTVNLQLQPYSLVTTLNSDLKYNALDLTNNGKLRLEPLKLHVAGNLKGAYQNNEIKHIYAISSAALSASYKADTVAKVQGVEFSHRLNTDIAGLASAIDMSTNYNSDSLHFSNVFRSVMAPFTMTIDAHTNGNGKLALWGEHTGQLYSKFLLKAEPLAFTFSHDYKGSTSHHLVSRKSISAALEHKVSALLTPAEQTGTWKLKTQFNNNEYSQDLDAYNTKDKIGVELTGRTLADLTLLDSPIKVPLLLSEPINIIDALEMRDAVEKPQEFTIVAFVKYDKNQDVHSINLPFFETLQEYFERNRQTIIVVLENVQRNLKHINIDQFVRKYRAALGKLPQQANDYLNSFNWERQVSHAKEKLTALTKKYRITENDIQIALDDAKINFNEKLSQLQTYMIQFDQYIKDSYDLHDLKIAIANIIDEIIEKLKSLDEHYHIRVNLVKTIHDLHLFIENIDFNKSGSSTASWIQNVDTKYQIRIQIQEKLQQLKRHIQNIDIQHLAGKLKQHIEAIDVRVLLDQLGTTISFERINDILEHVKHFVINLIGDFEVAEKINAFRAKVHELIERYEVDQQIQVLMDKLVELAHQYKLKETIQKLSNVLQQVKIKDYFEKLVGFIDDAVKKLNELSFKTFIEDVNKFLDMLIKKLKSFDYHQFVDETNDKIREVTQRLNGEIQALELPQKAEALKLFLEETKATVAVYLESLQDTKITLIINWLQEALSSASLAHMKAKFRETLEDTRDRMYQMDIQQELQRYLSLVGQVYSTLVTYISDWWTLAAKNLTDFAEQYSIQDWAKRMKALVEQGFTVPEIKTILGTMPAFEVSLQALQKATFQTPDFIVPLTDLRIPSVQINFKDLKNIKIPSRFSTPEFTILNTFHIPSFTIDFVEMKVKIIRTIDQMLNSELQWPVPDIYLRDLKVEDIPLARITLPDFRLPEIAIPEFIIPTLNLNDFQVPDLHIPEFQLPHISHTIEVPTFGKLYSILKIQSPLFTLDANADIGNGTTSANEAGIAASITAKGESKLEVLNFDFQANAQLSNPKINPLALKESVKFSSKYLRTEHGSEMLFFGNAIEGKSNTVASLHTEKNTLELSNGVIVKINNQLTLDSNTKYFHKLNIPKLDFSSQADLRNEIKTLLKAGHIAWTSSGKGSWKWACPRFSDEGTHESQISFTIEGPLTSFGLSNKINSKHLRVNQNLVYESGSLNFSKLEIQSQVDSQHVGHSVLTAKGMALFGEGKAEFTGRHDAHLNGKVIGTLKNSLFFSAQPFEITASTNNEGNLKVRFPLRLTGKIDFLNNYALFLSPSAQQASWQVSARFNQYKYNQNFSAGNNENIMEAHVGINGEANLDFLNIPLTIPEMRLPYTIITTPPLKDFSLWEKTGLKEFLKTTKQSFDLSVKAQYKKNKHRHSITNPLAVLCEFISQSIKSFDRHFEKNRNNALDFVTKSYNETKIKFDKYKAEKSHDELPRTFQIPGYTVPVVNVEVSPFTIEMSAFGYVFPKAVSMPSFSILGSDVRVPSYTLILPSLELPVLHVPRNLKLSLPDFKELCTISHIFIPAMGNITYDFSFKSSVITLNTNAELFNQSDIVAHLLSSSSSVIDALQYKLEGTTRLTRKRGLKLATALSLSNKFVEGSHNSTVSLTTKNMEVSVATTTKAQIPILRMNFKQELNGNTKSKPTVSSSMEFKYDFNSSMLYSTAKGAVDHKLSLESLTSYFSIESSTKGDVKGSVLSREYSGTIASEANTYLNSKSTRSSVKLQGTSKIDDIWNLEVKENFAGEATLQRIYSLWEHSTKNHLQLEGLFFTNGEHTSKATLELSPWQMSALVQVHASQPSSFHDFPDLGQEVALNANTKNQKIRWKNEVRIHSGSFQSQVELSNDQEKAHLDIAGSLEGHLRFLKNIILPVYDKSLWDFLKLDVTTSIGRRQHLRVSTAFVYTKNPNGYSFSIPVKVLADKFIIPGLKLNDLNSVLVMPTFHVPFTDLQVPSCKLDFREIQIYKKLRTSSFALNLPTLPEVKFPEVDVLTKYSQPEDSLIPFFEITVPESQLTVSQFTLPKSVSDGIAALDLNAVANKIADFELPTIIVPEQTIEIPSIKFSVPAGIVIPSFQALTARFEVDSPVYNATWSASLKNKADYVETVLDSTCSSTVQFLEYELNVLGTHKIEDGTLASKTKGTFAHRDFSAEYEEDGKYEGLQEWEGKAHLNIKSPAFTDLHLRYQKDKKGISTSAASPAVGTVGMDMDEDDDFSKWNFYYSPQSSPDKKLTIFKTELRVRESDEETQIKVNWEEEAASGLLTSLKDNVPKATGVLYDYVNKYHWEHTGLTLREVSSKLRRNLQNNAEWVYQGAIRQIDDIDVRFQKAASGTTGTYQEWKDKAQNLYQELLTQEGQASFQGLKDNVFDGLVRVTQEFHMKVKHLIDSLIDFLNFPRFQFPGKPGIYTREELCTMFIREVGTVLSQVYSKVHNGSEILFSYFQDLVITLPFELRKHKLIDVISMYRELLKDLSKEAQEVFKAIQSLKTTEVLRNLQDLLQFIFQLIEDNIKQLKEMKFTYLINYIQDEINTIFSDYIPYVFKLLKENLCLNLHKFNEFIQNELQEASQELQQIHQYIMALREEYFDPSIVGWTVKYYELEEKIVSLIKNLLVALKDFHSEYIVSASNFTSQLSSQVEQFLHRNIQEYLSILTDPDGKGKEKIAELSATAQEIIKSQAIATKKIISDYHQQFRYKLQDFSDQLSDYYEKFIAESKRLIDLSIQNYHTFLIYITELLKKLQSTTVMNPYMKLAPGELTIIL
From the text: To determine if the binding of the monosuccinic acid ester to VLDL and LDL can cause a change in the structure of apoB-100, an immunoreactivity assay was designed. This is a sandwich ELISA assay which measures the expression of a specific epitope on apoB-100. Essentially the sandwich ELISA consists of a specific monoclonal antibody directed to that epitope on apoB-100 as a capture antibody laid onto a microtitre plate. […] A second polyclonal antibody is then used to quantify the amount of LDL captured.
The detailed immunoreactivity protocol is as follows. A nunc maxi-sorp microtiter plate is coated overnight at 4° C. with 100 μl of Anti-Human ApoB monoclonal antibody from Boehringer Mannheim (catalog # 1533 975) diluted 1:1000 in PBS pH 7.4. The compounds are dissolved in DMSO with appropriate concentration of LDL for 15 minutes and incubated at 37° C.
The coated microtiter plate is washed three times with 200 μl PBS/0.05% tween, and a sample of 100 μl LDL/Compound or LDL standard is added to each well. The plates are then incubated for 2 hours at room temperature.
The microtiter plate is washed three times with 200 μl PBS/0.05% tween, and 100 μl of 1:2000 Polyclonal Human Anti-ApolipoproteinB from Boehringer Mannheim (catalog # 726 494) in PBS/tween 0.05% is added. The plate is incubated for one hour at room temperature.
The microtiter plate is washed three times with 200 ul PBS/0.05% tween, and 100 μl of 1:2000 Anti-Sheep Ig peroxidase from Boehringer Mannheim (catalog # 605 345) in PBS/05% tween is added. The plate is incubated for one hour at room temperature.
The microtiter plate is washed three times with 200 ul PBS/0.05% tween, and 100 μl of TMB substrate is added and incubated for 5-10 minutes in the dark. The reaction is stopped with 15 μl 8N H2SO4 and read on the Bio-Rad Microplate plate reader at 450 nm within 30 minutes.

purified human LDL = molecular target: T2, purified human LDL (Homo sapiens, UniProt P04114); experiment: Agarose electrophoresis of purified human LDL mixed with compound; format: binding
T2 construct: from tissue; host or cells: human LDL particles (plasma lipoprotein)
T2 sequence (P04114 28-4563): as above
Procedure: Agarose electrophoresis is a technique used to separate and study lipoproteins. The monosuccinic acid ester of probucol was added to purified human LDL and the mixture was run on agarose electrophoresis.

[2] = test system: LDL cholesterol, HDL, plasma triglycerides; conditions: human, in vivo; cited from earlier work
VLDL and LDL clearance = experiment: Lipoprotein turnover study in monkeys (stable isotope labelling of apoB-100); format: in vivo, monkey; conditions: no species or dose stated
Procedure: A lipoprotein turnover study was performed in monkeys that were dosed with the monosuccinic acid ester of probucol (25 mg/kg/day for one four weeks). The clearance rates of VLDL and LDL were examined before and after treatment of the animals using a stable isotope technique to label apoB-100 in VLDL and LDL.

total plasma cholesterol = experiment: Cholesterol lowering in mice lacking functional LDL receptors; format: in vivo, mouse; conditions: LDL receptor-deficient mice, 150 mg/kg/day oral with high fat/high cholesterol diet, 12 weeks
Procedure: To explore whether the enhanced clearance is mediated by the tissue LDL receptors, the major clearance mechanism for LDL in the body, the LDL lowering activity of the monosuccinic acid ester of probucol was tested in a mouse model that lacks functional LDL receptors (eliminated through genetic engineering).

Row | Compound | Hamster (plasma cholesterol) | Cell-Free Assay [1] | further results
1 | CC(C)(C)c1cc(SCc2ccc(F)cc2C(F)(F)F)cc(C(C)(C)C)c1O [2,6-di-tert-butyl-4-[4-fluoro-2-(trifluoromethyl)benzylthio]phenol] | no | no | –
2 | CC(C)(C)c1cc(SCc2ccc([N+](=O)[O-])cc2[N+](=O)[O-])cc(C(C)(C)C)c1O [2,6-di-tert-butyl-4-[(2,4-dinitrobenzyl)thio]phenol] | no | no | –
3 | CC(C)(C)c1cc(SCc2cccc(OC(F)(F)F)c2)cc(C(C)(C)C)c1O [2,6-di-tert-butyl-4-[(3-trifluoromethoxy)benzylthio]phenol] | no | no | –
4 | CC(C)(C)c1cc(SCc2cccc(C(F)(F)F)c2)cc(C(C)(C)C)c1O [2,6-di-tert-butyl-4-[(3-trifluoromethyl)benzylthio]phenol] | yes | no | –
5 | CC(C)(C)c1cc(SCc2ccc(F)cc2)cc(C(C)(C)C)c1O [2,6-di-tert-butyl-4-[(4-fluorobenzyl)thio]phenol] | no | no | –
6 | CC(C)(C)c1cc(SCc2ccc(CCO)cc2)cc(C(C)(C)C)c1O [2,6-di-tert-butyl-4-thio-(4′-(methyl)phenylethyl alcohol))phenol] | yes | yes | –
7 | CC(C)(C)c1cc(SCc2ccc(C(F)(F)F)cc2)cc(C(C)(C)C)c1O [2,6-di-tert-butyl-4-thio-(4′-(trifluoromethyl)benzyl) phenol] | yes | yes | –
8 | CN(C)S(=O)(=O)c1ccc(CSc2cc(C(C)(C)C)c(O)c(C(C)(C)C)c2)cc1 [2,6-di-tert-butyl-4-thio-(4′-methyl-N,N-dimethylbenzenesulfonamide) phenol] | yes | yes | –
9 | CC(C)(C)c1cc(SCc2ccc(OC(=O)c3ccccc3)cc2)cc(C(C)(C)C)c1O [4-[(3,5-di-tert-butyl-4-hydroxyphenylthio)methyl]phenyl benzoate] | yes | yes | –
10 | CC(C)(Sc1cc(C(C)(C)C)c(O)c(C(C)(C)C)c1)Sc1cc(C(C)(C)C)c(OCC(O)C(O)C(O)C(=O)O)c(C(C)(C)C)c1 (stereo not shown) [5-[4-[[1-[[3,5-bis(1,1-dimethylethyl)-4-hydroxyphenyl)thio]-1-methylethyl]thioo-2,6-bis(1,1-dimethylethyl)phenoxy-2,3,4-trihydroxy-pentanoic acid] | no | yes | –
11 | CC(C)(Sc1cc(C(C)(C)C)c(O)c(C(C)(C)C)c1)Sc1cc(C(C)(C)C)c(OC[C@@H](O)[C@@H](O)[C@H](O)[C@@H](O)C=O)c(C(C)(C)C)c1 [6-deoxy-6-(probucol-1-yl)-D-glucose] | yes | yes | –
12 | COC(=O)c1ccc(CSc2cc(C(C)(C)C)c(O)c(C(C)(C)C)c2)o1 [Methyl 5-(3,5-id-tert-butyl-4-hydroxyphenylthio)methyl-2-furoate] | yes | yes | –
13 | CCN(CC)S(=O)(=O)c1ccc(CSc2cc(C(C)(C)C)c(O)c(C(C)(C)C)c2)cc1 [N,N-diethyl-4-[3,5-di-tert-butyl-4-hydroxyphenylthio)methyl]benzene-sulfonamide] | no | no | –
14 | CN(C)C(=O)c1ccc(CSc2cc(C(C)(C)C)c(O)c(C(C)(C)C)c2)cc1 [N,N-dimethyl-4-[(3,5-di-tert-butyl-4-hydroxyphenylthio)methyl]benzamide] | yes | no | –
15 | CN(C)C(=O)Cc1ccc(CSc2cc(C(C)(C)C)c(O)c(C(C)(C)C)c2)cc1 [N,N-dimethyl-4-[(3,5-di-tert-butyl-4-hydroxyphenylthio)methyl]phenylacetamide] | yes | yes | –
16 | CCCN(CCC)C(=O)c1ccc(CSc2cc(C(C)(C)C)c(O)c(C(C)(C)C)c2)cc1 [N,N-dipropyl-4-[(3,5-di-tert-butyl-4-hydroxyphenylthio)methyl]benzamide] | no | no | –
17 | CC(C)(Sc1cc(C(C)(C)C)c(O)c(C(C)(C)C)c1)Sc1cc(C(C)(C)C)c(OC(=O)CCCC(=O)O)c(C(C)(C)C)c1 [pentanedioic acid, mono[4-[[1-[3,5-bis(1,1-dimethylethyl)-4-hydroxyphenyl]thio]1-methylethyl]thio-2,6-bis(1,1-dimethylethyl)phenyl]ester] | yes | yes | –
18 | CC(C)(Sc1cc(C(C)(C)C)c(O)c(C(C)(C)C)c1)Sc1cc(C(C)(C)C)c(O)c(C(C)(C)C)c1 [probucol, 4,4′-(isopropylidenedithio) bis(2,6-di-tert-butylphenol), reference compound] | – | – | shift of electrophoretic mobility of LDL (purified human LDL): did not shift the mobility of LDL; effect on plasma triglycerides [2]: no effect; effect on clearance of VLDL (general statement) (VLDL and LDL clearance): little effect; lowering of plasma cholesterol (total plasma cholesterol): 17%; effect on binding of LDL to the capture monoclonal antibody (FIG. 6a) [1]: no significant effect
19 | CC(C)(Sc1cc(C(C)(C)C)c(O)c(C(C)(C)C)c1)Sc1cc(C(C)(C)C)c(OCC(O)C(O)C(O)C(O)CO)c(C(C)(C)C)c1 (stereo not shown) [probucol-2,3,4,5,6-pentahydroxyhexyl ether] | yes | yes | –
20 | O=C(O)CCC(=O)O [succinate, reference compound] | – | – | effect on binding of LDL to the capture monoclonal antibody (FIG. 6a) [1]: no significant effect
21 | Cc1c(C)c2c(c(C)c1OC(=O)CCC(=O)O)CC[C@@](C)(CCC[C@H](C)CCC[C@H](C)CCCC(C)C)O2 [vitamin E succinate, reference compound] | – | – | effect on binding of LDL to the capture monoclonal antibody (FIG. 6a) [1]: increased the binding of LDL
22 | CC(C)(C)c1cc(SCC(=O)c2ccc([N+](=O)[O-])cc2)cc(C(C)(C)C)c1O [α-(3,5-di-tert-butyl-4-hydroxyphenylthio)-4-nitro-acetophenone] | yes | no | –
23 | Mono[4-(3,5-di-tert-butyl-4-hydroxybenzyl)2,6-di-tert-butylphenyl] succinate | no | yes | –
24 | Mono[4-(3,5-di-tert-butyl-4-hydroxybenzyl)-2,6-di-tert-butylphenyl]glutarate | no | no | –
25 | Mono[4-(3,5-di-tert-butyl-4-hydroxyphenacylthio)-2,6-di-tert-butylphenyl] succinate | no | yes | –
26 | vitamin E [reference compound] | – | – | effect on binding of LDL to the capture monoclonal antibody (FIG. 6a) [1]: no significant effect
